Measurements taken from patent US9029574B2, “Bicyclic compound and use thereof for medical purposes” (Ono Pharmaceutical Co., Ltd., priority 2011, dated 2015).

Legend:
[1] = system: male monkey (crab-eating monkey); test: Intraocular pressure lowering action in monkey under consciousness; format: in vivo; conditions: ocular instillation 30 μL, 10 μg/mL; for Maximum intraocular pressure lowering rate (%): maximum up to 24 hours
Protocol: (2-3) Intraocular Pressure Lowering Action in Monkey Under Consciousness
To a left eye of a male monkey (crab-eating monkey) under consciousness, 30 μL of a solution obtained by adjusting a test substance with using the same base as that described above was ocular instillation-administered and, to a right eye, 30 μL of a solution of only a base as a control was ocular instillation-administered, respectively. An intraocular pressure after administration was measured with time from administration initiation until 24 hours. In case of measurement of an intraocular pressure, a crab-eating monkey was fixed on a monkey chair, and the monkey was anesthetized by ocular instillation-administering an ocular surface anesthetic (Benoxil eye drops 0.4% Santen Pharmaceutical Co., Ltd.). After mounting of a blepharostat (Handaya Co., Ltd.), an intraocular pressure of both eyes was measured (5 to 8 examples per group) with using a pneumatic applanation flat tonometer (Model 30 Classic, REICHERT). A difference in an intraocular pressure value between control eyes and eyes to which a test substance had been administered, was calculated as an intraocular pressure lowering rate with using the following equation, and sustainability of intraocular eye lowering action was assessed using a maximum intraocular pressure lowering rate during measurement and an intraocular pressure lowering rate after 24 hours. As the test substance, the Comparative Compound B, and the compounds of Example 16 (3), Example 16 (25) and Example 16 (35) were used, and an administration dose was 10 μg/mL in all cases.

[2] = system: male dog (TOYO Beagle); test: Intraocular pressure lowering action in dog after ocular instillation; format: in vivo; conditions: for Maximum of intraocular pressure lowering rate (%): ocular instillation 30 μL, maximum among 2, 4, 6, 8 and 24 hours; for intraocular pressure lowering action as compared with latanoprost: ocular instillation, in words
Protocol: As can be easily understood by a person skilled in the art, in an in vivo test, since regarding all test compounds, carboxylic acid which is an active body has bad corneal permeability, pharmacological action of the active body was assessed by ocular instillation administration of a compound which had been converted into an ester such as a methyl ester, an ethyl ester, an isopropyl ester etc. In addition, in a group of the compound of the present inventions, by ocular instillation administration of the ester body in an experimental animal (rabbit, dog etc.) by which pharmacological action is confirmed below and, thereafter, measurement of a drug concentration of carboxylic acid in an aqueous humor, it was confirmed that the ester is rapidly converted into corresponding carboxylic acid.
(2-1) Intraocular Pressure Lowering Action
To one eye of a male dog (TOYO Beagle) which had been sufficiently acclimated in advance, 30 μL of each test compound (the compound of Example 16 (35), the compound of Example 16 (3) and the compound of Example 16 (25)) which had been adjusted with a base (containing citrate buffer pH 6.5, 0.5% polysorbate 80, 1% propylene glycol, […]), was ocular-instilled respectively. The other eye was not treated. As a positive control compound, latanoprost which is the known compound was used.
Thereafter, an ocular surface anesthetic (Benoxil eye drops 0.4%, Santen Pharmaceutical Co., Ltd.) was subjected to ocular instillation to locally anesthetize eyes, and an intraocular pressure of each test compound before ocular instillation and after 2, 4, 6, 8, and 24 hours from ocular instillation was measured. An intraocular pressure was measured using a pneumatic applanation flat tonometer (Model 30 Classic, REICHERT). An intraocular pressure lowering rate (%) was calculated by the following equation.

[3] = system: male rabbit (NewZealandWhite); test: Aqueous humor protein concentration in rabbit after ocular instillation; format: in vivo; conditions: ocular instillation 30 μL of 0.1% (w/v), aqueous humor collected 0 to 8 hours
Protocol: (2-2) Assessment of Ocular Stimulating Property and Aqueous Humor Protein Concentration
To one eye of a male rabbit (NewZealandWhite, 2.0 to 3.0 kg), 30 μL of the compound of Example 16 (35), the compound of Example 16 (3) and the compound of Example 16 (25) which had been adjusted to 0.1% (w/v) with a base (containing citrate buffer pH 6.5, 0.5% polysorbate 80, 1% propylene glycol, 0.01% benzalkonium chloride), was ocular-instilled respectively. Thereafter, an aqueous humor in anterior chamber after 0, 1, 2, 4, 6 and 8 hours from ocular instillation was collected, and a protein concentration in the humor was measured. As a comparative compound, the aforementioned methyl ester of the compound of Example 12 described in Patent Literature 2 (i.e. compound of Example 10 described in Patent Literature 2) (hereinafter, abbreviated as Comparative Compound B in some cases) was used.
Regarding any test compound, a dose until a dissolution limit (150 to 1000 μg/mL) was administered and action of each active body was assessed.

[4] = target: T1, mouse EP1 receptor (Mus musculus, UniProt P35375); test: Measurement of EP1 agonist activity (intracellular calcium concentration) in EP1-CHO cells; format: cell-based; conditions: EP1-CHO cells, intracellular calcium concentration; read-out: Agonist activity on various prostanoid receptors: EC50 value (nmol/L) EP1
T1 construct: expressed in transfected cells; host or cells: CHO cells (EP1-CHO)
T1 sequence (P35375 1-405): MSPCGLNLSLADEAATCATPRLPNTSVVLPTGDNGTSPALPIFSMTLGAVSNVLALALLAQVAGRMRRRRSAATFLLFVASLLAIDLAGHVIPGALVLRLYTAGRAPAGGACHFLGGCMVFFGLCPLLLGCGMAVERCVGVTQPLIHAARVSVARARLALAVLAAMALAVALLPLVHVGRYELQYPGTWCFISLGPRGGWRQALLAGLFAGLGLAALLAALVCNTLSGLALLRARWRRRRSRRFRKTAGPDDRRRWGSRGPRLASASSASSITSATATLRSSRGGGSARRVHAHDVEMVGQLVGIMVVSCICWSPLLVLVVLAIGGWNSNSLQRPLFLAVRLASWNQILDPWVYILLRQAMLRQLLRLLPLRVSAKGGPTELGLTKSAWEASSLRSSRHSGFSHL
Source text: (§1) (1-1) Measurement of Agonist Activity on Various Mouse Prostanoid Receptors
(§2) With using CHO cells (FP-CHO, EP1-CHO and IP-CHO, respectively) in which various mouse prostanoid receptors were forcibly expressed, respectively, agonist activity of test compounds on various prostanoid receptors was studied employing an intracellular calcium concentration regarding FP and EP1, and an intracellular cyclic AMP (hereinafter, abbreviated as cAMP) production amount regarding IP, as an index.
(§3) The test compound was dissolved with dimethyl sulfoxide (DMSO) to prepare a 10 mmol/L solution. Regarding the prepared 10 mmol/L solution, upon use, the 10 mmol/L solution was thawed; step wisely-diluted using DMSO; and diluted with a buffer solution for measurement or a buffer solution for measurement 2, which was subjected to an experiment.
(§4) Cells forcibly expressing various mouse prostanoid receptors were standing-cultured at 37° C. in the presence of 5% CO2 with using an α-MEM medium (Sigma) (for culturing FP-CHO and EP1-CHO) containing inactivated (56° C., 30 minutes) 9.8 vol % dialysed-FBS (Invitrogen) and penicillin-streptomycin-glutamine (GIBCO-BRL), or nucleic acid-containing α-MEM (Sigma) (for culturing IP-CHO) containing inactivated (56° C., 30 minutes) 9.8 vol % dialysed-FBS (Invitrogen) and penicillin-streptomycin glutamine (Invitrogen). Subculturing was performed by the following method.
(§5) After collecting cells into a centrifuging tube, cells were centrifuged at 120 g for 3 minutes at room temperature and the supernatant was removed. Cells were suspended in a suitable amount of a medium, and seeded in a culturing flask.
(§6) (1-2) Measurement of FP and EP1 Agonist Activity (Measurement of Intracellular Calcium Concentration)
(§7) Regarding FP-CHO and EP1-CHO, by the same method as that of subculturing, cells were peeled and suspended. Before two days from measurement, cells were seeded at a density of 1.0×10^4 cells/well into a 96-well UV plate, and standing-cultured at 37° C. in the presence of 5% CO2. […] To each well, 100 μL of a medium containing 5 μmol/L fura 2-AM (DOJINDO), 2.5 mmol/L Probenecid (Sigma), 20 μmol/L indometacin (Sigma) and 10 mmol/L HEPES (Invitrogen) was added, and cells were incubated for about 60 minutes in a CO2 incubator. After completion of the incubation, the medium was removed, and cells were washed with a buffer solution for measurement (Hank's balanced salt solution (Nissui Pharmaceutical Co., Ltd., 9.8 g of the present product was dissolved in 1 L distilled water) containing 0.1 or 1 w/v % bovine serum albumin, 2 μmol/L indometacin, 2.5 mmol/L Probenecid and 10 mmol/L HEPES-NaOH (pH 7.4)) twice. To each well, 120 μL of a buffer solution for measurement was added; and cells were incubated in a CO2 incubator for 30 minutes; and then cells were subjected to an experiment.
(§8) The 96-well UV plate was set in a fluorescent spectral photometer (FDSS-3000, Hamamatsu Photonics K.K.), and an intracellular calcium concentration was measured. To perform a reaction, 30 μL of a buffered solution for measurement containing an agonist at a variety of concentrations was added. Measurement of an intracellular calcium concentration was performed by irradiating cells with excited light of 340 nm and 380 nm alternately, with measuring a fluorescent intensity at 500 nm, and obtaining a fluorescent intensity ratio of 2-wavelength excitation.
(§9) With using measured values obtained from the above method, an EC50 value as an index of agonist activity of the compound of the present invention on mouse FP, mouse EP1 and mouse IP receptors was calculated.

[5] = target: T2, mouse FP receptor (Mus musculus, UniProt P43117); test: Measurement of FP agonist activity (intracellular calcium concentration) in FP-CHO cells; format: cell-based; conditions: FP-CHO cells, intracellular calcium concentration; read-out: Agonist activity on various prostanoid receptors: EC50 value (nmol/L) FP
T2 construct: expressed in transfected cells; host or cells: CHO cells (FP-CHO)
T2 sequence (P43117 whole entry): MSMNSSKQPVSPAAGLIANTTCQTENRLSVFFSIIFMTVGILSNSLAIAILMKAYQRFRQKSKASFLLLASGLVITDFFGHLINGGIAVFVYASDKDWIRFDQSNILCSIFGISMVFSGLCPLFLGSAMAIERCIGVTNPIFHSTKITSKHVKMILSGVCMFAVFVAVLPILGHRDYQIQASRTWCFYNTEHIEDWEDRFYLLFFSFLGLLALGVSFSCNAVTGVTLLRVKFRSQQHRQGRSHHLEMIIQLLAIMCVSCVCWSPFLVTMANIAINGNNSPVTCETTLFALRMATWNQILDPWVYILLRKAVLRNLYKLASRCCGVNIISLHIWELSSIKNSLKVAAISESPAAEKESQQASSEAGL
Source text: as §1, §2, §3, §4, §5, §6, §7, §8, §9

[6] = target: T3, mouse IP receptor (Mus musculus, UniProt P43252); test: Measurement of IP agonist activity (cAMP concentration) in IP-CHO cells; format: cell-based; conditions: IP-CHO cells, intracellular cAMP production amount; read-out: Agonist activity on various prostanoid receptors: EC50 value (nmol/L) IP
T3 construct: expressed in transfected cells; host or cells: CHO cells (IP-CHO)
T3 sequence (P43252 whole entry): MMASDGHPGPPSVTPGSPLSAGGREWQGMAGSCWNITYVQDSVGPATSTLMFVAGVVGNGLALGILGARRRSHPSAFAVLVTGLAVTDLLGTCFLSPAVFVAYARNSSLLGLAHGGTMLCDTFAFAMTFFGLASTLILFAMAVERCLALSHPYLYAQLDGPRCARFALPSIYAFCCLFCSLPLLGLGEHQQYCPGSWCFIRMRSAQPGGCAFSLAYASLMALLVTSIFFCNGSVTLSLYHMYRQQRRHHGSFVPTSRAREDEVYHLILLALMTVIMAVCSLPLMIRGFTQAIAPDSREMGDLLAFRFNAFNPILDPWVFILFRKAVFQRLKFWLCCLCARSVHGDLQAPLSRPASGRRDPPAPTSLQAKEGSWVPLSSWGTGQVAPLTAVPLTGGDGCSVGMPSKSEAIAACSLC
Source text: as §1, §2, §3, §4, §5
(1-3) Measurement of IP Agonist Activity (Measurement of cAMP Concentration)
Cells were suspended in a suitable amount of a buffer solution for measurement 1 (MEM medium (Invitrogen) containing 0.1 w/v % bovine serum albumin (Sigma) and 2 μmol/L diclofenac (Sigma)), and centrifuged at room temperature for 3 minutes at 500 g, and the supernatant was removed. Cells were suspended in a buffer solution for measurement 2 (MEM medium (Invitrogen) containing 0.1 w/v % bovine serum albumin (Sigma), 2 μmol/L diclofenac (Sigma) and 1 mmol/L 3-isobutyl-1-methylxanthine), and each 25 μL of the suspension was dispensed at a density of 5.0×10^4 cells/well into a 96-well ½ area plate. A buffer solution for measurement 2 (25 μL) containing an agonist at a variety of concentrations was added to perform a reaction at room temperature for 30 minutes. Measurement of a cAMP concentration was performed with using the cAMP HTRF HiRange kit (CIS bio International). According to the two step protocol of the kit manual, each 25 μL of cAMP-D2 and cryptase diluted with a lysis buffer were added, followed by incubation at room temperature for 1 hour. After incubation for 1 hour, time resolved fluorescence at 620 nm and 660 nm in case of beging excited at 340 nm was measured using Analyst GT (Molecular Device), and a ratio (TRF ratio) was obtained, by which a cAMP concentration was calculated from a calibration line.
as §9

Row | EC50 [4] [nmol/L] | EC50 [5] [nmol/L] | EC50 [6] [nmol/L] | Structure (SMILES) | Intraocular pressure lowering rate (%) after 24 hours [1] [%] | Maximum intraocular pressure lowering rate (%) [1] [%] | Maximum of intraocular pressure lowering rate (%) ([2]; administration dose 10 μg/mL) | intraocular pressure lowering action as compared with latanoprost [2] | action of raising a protein concentration in an aqueous humor [3] | Maximum of intraocular pressure lowering rate (%) ([2]; administration dose 50 μg/mL)
1 | – | – | – | CC(C)OC(=O)CCC[C@H]1CC[C@@H]2[C@@H](/C=C/[C@@H](O)COc3cccc(Cl)c3)[C@H](O)C[C@@H]2OC1 [Example 16 (3), 2-Propanyl 4-{(3S,5aR,6R,7R,8aS)-6-[(1E,3R)-4-(3-chlorophenoxy)-3-hydroxy-1-buten-1-yl]-7-hydroxyoctahydro-2H-cyclopenta[b]oxepin-3-yl}butanoate] | 15.1 ± 2.0 | 28.8 ± 2.2 | 35.7 | stronger intraocular pressure lowering action | no action of raising a protein concentration in an aqueous humor | –
2 | – | – | – | CC(C)OC(=O)CCC[C@H]1CC[C@@H]2[C@@H](/C=C/[C@@H](O)COc3cc(F)ccc3F)[C@H](O)C[C@@H]2OC1 [Example 16 (25), 2-Propanyl 4-{(3S,5aR,6R,7R,8aS)-6-[(1E,3R)-4-(2,5-difluorophenoxy)-3-hydroxy-1-buten-1-yl]-7-hydroxyoctahydro-2H-cyclopenta[b]oxepin-3-yl}butanoate] | 17.5 ± 2.1 | 26.5 ± 1.7 | 40.6 | stronger intraocular pressure lowering action | no action of raising a protein concentration in an aqueous humor | –
3 | > 10000 | 4.6 | > 10000 | O=C(O)CCC[C@H]1CC[C@@H]2[C@@H](/C=C/C(F)(F)CCc3ccccc3)[C@H](O)C[C@@H]2OC1 [Example 141 (1), 4-{(3S,5aR,6R,7R,8aS)-6-[(1E)-3,3-difluoro-5-phenyl-1-penten-1-yl]-7-hydroxyoctahydro-2H-cyclopenta[b]oxepin-3-yl}butanoic acid] | – | – | – | – | – | –
4 | > 10000 | 39.1 | > 10000 | CC(C)=CCCCC(F)(F)/C=C/[C@@H]1[C@H]2CC[C@H](CCCC(=O)O)CO[C@H]2C[C@H]1O [Example 141 (5), 4-{(3S,5aR,6R,7R,8aS)-6-[(1E)-3,3-difluoro-8-methyl-1,7-nonadien-1-yl]-7-hydroxyoctahydro-2H-cyclopenta[b]oxepin-3-yl}butanoic acid] | – | – | – | – | – | –
5 | – | – | – | CC(C)OC(=O)CCC/C=C\C[C@@H]1[C@@H](CC[C@@H](O)CCc2ccccc2)[C@H](O)C[C@@H]1O [Latanoprost, latanoprost, reference compound] | – | – | – | – | – | 25.4
